Laboratory results as given in US12466829B2, “Spirocyclic piperidine melanocortin subtype-2 receptor (MC2R) antagonists and uses thereof” (Crinetics Pharmaceuticals, Inc., priority 2019, dated 2025).

What follows are compounds tested against T1, hMC2 receptor (Homo sapiens, UniProt Q01718) (assay: hMC2 membrane binding assay ([125I]ACTH (1-39) Tyr23, SPA)). Details: crude membranes of CRE-bla-CHO-K1 cells expressing hMC2 receptor and hMRAP; 0.2 nM [125I]ACTH (1-39) Tyr23; 1.5 hours at room temperature; read-out: MC2R binding potency.
T1 construct: host or cells: CRE-bla-CHO-K1 cells
T1 sequence (Q01718 whole entry): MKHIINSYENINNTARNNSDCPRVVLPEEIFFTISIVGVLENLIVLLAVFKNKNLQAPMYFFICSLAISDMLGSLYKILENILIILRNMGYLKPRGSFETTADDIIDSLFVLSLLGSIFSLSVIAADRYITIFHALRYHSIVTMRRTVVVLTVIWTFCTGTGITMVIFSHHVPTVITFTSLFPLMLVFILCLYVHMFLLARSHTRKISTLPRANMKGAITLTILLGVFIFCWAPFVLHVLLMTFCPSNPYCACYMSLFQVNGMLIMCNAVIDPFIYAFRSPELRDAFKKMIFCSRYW
T1 sequence (Q8TCY5 whole entry partner): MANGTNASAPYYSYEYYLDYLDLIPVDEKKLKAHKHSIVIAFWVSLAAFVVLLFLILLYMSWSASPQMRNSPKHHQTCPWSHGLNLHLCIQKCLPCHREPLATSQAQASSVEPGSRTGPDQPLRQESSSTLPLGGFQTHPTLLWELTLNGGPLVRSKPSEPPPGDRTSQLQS
Description: Crude membrane fractions are prepared from CRE-bla-CHO-K1 cells stably expressing hMC2 receptor and hMRAP accessory protein (Thermo Fisher). The cells are grown to 85-100% confluence on standard tissue culture dishes in GlutaMax DMEM growth media (Gibco) with following additives: 10% dialyzed FBS (Gemini), 0.1 mM NEAA (Gibco), 25 mM HEPES (Gibco), 5 μg/mL blasticidin (Goldbio), 100 μg/mL zeocin (Invitrogen), 600 μg/mL hygromycin (Goldbio). To prepare membranes, cells are scraped and collected in 1× Dulbecco's phosphate buffered saline (Corning) and then pelleted at 1000 RPM's. The cell pellet is reconstituted in membrane preparation buffer (20 mM HEPES, 6 mM MgCl2 and 1 mM EGTA, protease inhibitor tablets (Pierce) adjusted to pH 7.4), homogenized using a dounce homogenizer, and the resulting membrane fraction is pelleted by centrifugation at 12,000 RPM's. The membrane pellet is resuspended in membrane preparation buffer, snap freezed and stored at −80° C. for later use.
The hMC2 membrane binding assay utilizes the following components: radiolabel [^125I]ACTH (1-39) Tyr23 (PerkinElmer), wheatgerm agglutinin coated PVT SPA beads (PerkinElmer), crude hMC2R membranes, and compounds. Briefly hMC2R membranes are incubated with SPA beads in binding assay buffer (50 mM HEPES, 5 mM MgCl2, 1 mM CaCl2), 0.2% BSA, protease inhibitor tablets (Pierce) adjusted to pH7.4) prior to assay initiation. […] Assay plates are read using a Top Count NXT and Ki values for compounds are determined using a GraphPad Prism 6 non-linear regression analysis.
`CCOc1ncccc1-c1ccc2c(n1)N([C@H]1CCNC1)CC21CCN(c2ccc(C(F)(F)F)cc2C#N)CC1` [1-53, 2-[6′-(2-ethoxypyridin-3-yl)-1′-[(3S)-pyrrolidin-3-yl]-1′,2′-dihydrospiro[piperidine-4,3′-pyrrolo[2,3-b]pyridin]-1-yl]-5-(trifluoromethyl)benzonitrile] gave a Ki of 0.01 to 0.1 µM. In the case of `CCOc1ncccc1-c1ccc2c(c1)N([C@@H](C)CN)CC21CCN(c2ccc(C(F)(F)F)cc2C#N)CC1` [1-41, 2-{1-[(2S)-1-aminopropan-2-yl]-6-(2-ethoxypyridin-3-yl)-1,2-dihydrospiro[indole-3,4′-piperidin]-1′-yl}-5-(trifluoromethyl)benzonitrile], the Ki is reported as 0.01 to 0.1 µM. With `C[C@@H](N)CN1CC2(CCN(c3ccc(C(F)(F)F)cc3C#N)CC2)c2ccc(-c3ccccc3CO)cc21` [1-42, 2-{1-[(2R)-2-aminopropyl]-6-[2-(hydroxymethyl)phenyl]-1,2-dihydrospiro[indole-3,4′-piperidin]-1′-yl}-5-(trifluoromethyl)benzonitrile] the Ki was 0.01 to 0.1 µM. `CCOc1ncccc1-c1ccc2c(c1)N(C(=O)NC[C@H](C)N)CC21CCN(c2ccc(C(F)(F)F)cc2C#N)CC1` [1-31, N-[(2S)-2-aminopropyl]-1′-[2-cyano-4-(trifluoromethyl)phenyl]-6-(2-ethoxypyridin-3-yl)-1,2-dihydrospiro[indole-3,4′-piperidine]-1-carboxamide] gave a Ki of 0.01 to 0.1 µM. In the case of `CCOc1ncccc1-c1ccc2c(c1)N([C@@H]1CCN(C)C1)C(=O)C21CCN(c2ccc(C(F)(F)F)cc2C#N)CC1` [1-21, 2-[6-(2-ethoxypyridin-3-yl)-1-[(3R)-1-methylpyrrolidin-3-yl]-2-oxo-1,2-dihydrospiro[indole-3,4′-piperidin]-1′-yl]-5-(trifluoromethyl)benzonitrile], the Ki is reported as 0.01 to 0.1 µM. `CCOc1ncccc1-c1ccc2c(c1)N(C(=O)C[C@@H](C)N)CC21CCN(c2ccc(C(F)(F)F)cc2C#N)CC1` [1-6, 2-{1-[(3R)-3-aminobutanoyl]-6-(2-ethoxypyridin-3-yl)-1,2-dihydrospiro[indole-3,4′-piperidin]-1′-yl}-5-(trifluoromethyl)benzonitrile] showed a Ki of 0.01 to 0.1 µM. `CCOc1ncccc1-c1ccc2c(c1)N(C(=O)CCN)CC21CCN(c2ccc(Cl)cc2C(F)(F)F)CC1` [1-22, 3-amino-1-{1′-[4-chloro-2-(trifluoromethyl)phenyl]-6-(2-ethoxypyridin-3-yl)-1,2-dihydrospiro[indole-3,4′-piperidin]-1-yl}propan-1-one] showed a Ki of 0.01 to 0.1 µM. For `CCOc1ncccc1-c1ccc2c(n1)N([C@@H]1CCNC1)CC21CCN(c2ccc(C(F)(F)F)cc2C#N)CC1` [1-52, 2-[6′-(2-ethoxypyridin-3-yl)-1′-[(3R)-pyrrolidin-3-yl]-1′,2′-dihydrospiro[piperidine-4,3′-pyrrolo[2,3-b]pyridin]-1-yl]-5-(trifluoromethyl)benzonitrile], the Ki was under 0.01 µM. In the case of `CCOc1ncccc1-c1ccc2c(c1)N(C(=O)CCN)CC21CCN(c2ccc(C(F)(F)F)cc2C#N)CC1` [1-3, 2-[1-(3-aminopropanoyl)-6-(2-ethoxypyridin-3-yl)-1,2-dihydrospiro[indole-3,4′-piperidin]-1′-yl]-5-(trifluoromethyl)benzonitrile], the Ki is reported as 0.01 to 0.1 µM. Compound `CCOc1ncccc1-c1ccc2c(n1)N(CCN)CC21CCN(c2ccc(C(F)(F)F)cc2C#N)CC1` [1-29, 2-[1′-(2-aminoethyl)-6′-(2-ethoxypyridin-3-yl)-1′,2′-dihydrospiro[piperidine-4,3′-pyrrolo[2,3-b]pyridin]-1-yl]-5-(trifluoromethyl)benzonitrile] has a Ki of under 0.01 µM. `CCOc1ncccc1-c1ccc2c(c1)N(C(=O)N[C@@H]1CCNC1)CC21CCN(c2ccc(C(F)(F)F)cc2C#N)CC1` [1-32, 1′-[2-cyano-4-(trifluoromethyl)phenyl]-6-(2-ethoxypyridin-3-yl)-N-[(3R)-pyrrolidin-3-yl]-1,2-dihydrospiro[indole-3,4′-piperidine]-1-carboxamide] showed a Ki of 0.01 to 0.1 µM. `CCOc1ncccc1-c1ccc2c(n1)N(C(=O)NC[C@H](C)N)CC21CCN(c2ccc(C(F)(F)F)cc2C#N)CC1` [1-56, N-[(2S)-2-aminopropyl]-1-[2-cyano-4-(trifluoromethyl)phenyl]-6′-(2-ethoxypyridin-3-yl)-1′,2′-dihydrospiro[piperidine-4,3′-pyrrolo[2,3-b]pyridine]-1′-carboxamide] showed a Ki of 0.01 to 0.1 µM. `CCOc1ncccc1-c1ccc2c(c1)N(C(=O)N[C@H]1CCNC1)CC21CCN(c2ccc(C(F)(F)F)cc2C#N)CC1` [1-33, 1′-[2-cyano-4-(trifluoromethyl)phenyl]-6-(2-ethoxypyridin-3-yl)-N-[(3S)-pyrrolidin-3-yl]-1,2-dihydrospiro[indole-3,4′-piperidine]-1-carboxamide] gave a Ki of 0.01 to 0.1 µM. `CCOc1ncccc1-c1ccc2c(c1)N([C@H]1CCNC1)C(=O)C21CCN(c2ccc(C(F)(F)F)cc2C#N)CC1` [1-17, 2-[6-(2-ethoxypyridin-3-yl)-2-oxo-1-[(3S)-pyrrolidin-3-yl]-1,2-dihydrospiro[indole-3,4′-piperidin]-1′-yl]-5-(trifluoromethyl)benzonitrile] was tested, and the Ki was 0.01 to 0.1 µM. Work on `N#Cc1cc(C(F)(F)F)ccc1N1CCC2(CC1)CN(C(=O)CCN)c1cc(-c3ccccc3CO)ccc12` [1-35, 2-[1-(3-aminopropanoyl)-6-[2-(hydroxymethyl)phenyl]-1,2-dihydrospiro[indole-3,4′-piperidin]-1′-yl]-5-(trifluoromethyl)benzonitrile] yielded a Ki of 0.01 to 0.1 µM. Compound `CCOc1ncccc1-c1ccc2c(c1)N(C[C@H](C)N)C(=O)CC21CCN(c2ccc(C(F)(F)F)cc2C#N)CC1` [1-68, 2-{1′-[(2S)-2-aminopropyl]-7′-(2-ethoxypyridin-3-yl)-2′-oxo-2′,3′-dihydro-1′H-spiro[piperidine-4,4′-quinolin]-1-yl}-5-(trifluoromethyl)benzonitrile] has a Ki of 0.01 to 0.1 µM. With `CCOc1ccc(N2CCC3(CC2)CN(C(=O)CCN)c2cc(-c4cccnc4OCC)ccc23)nc1C(F)(F)F` [1-25, 3-amino-1-{1′-[5-ethoxy-6-(trifluoromethyl)pyridin-2-yl]-6-(2-ethoxypyridin-3-yl)-1,2-dihydrospiro[indole-3,4′-piperidin]-1-yl}propan-1-one] the Ki was 1 to 10 µM. Compound `CCOc1ncccc1-c1ccc2c(c1)N(C(=O)NC[C@@H](C)N)CC21CCN(c2ccc(C(F)(F)F)cc2C#N)CC1` [1-30, N-[(2R)-2-aminopropyl]-1′-[2-cyano-4-(trifluoromethyl)phenyl]-6-(2-ethoxypyridin-3-yl)-1,2-dihydrospiro[indole-3,4′-piperidine]-1-carboxamide] has a Ki of 0.01 to 0.1 µM. “2-[1′-(3-aminopropyl)-7′-(2-ethoxypyridin-3-yl)-2′-oxo-2′,3′-dihydro-1′H-spiro[piperidine-4,4′-quinolin]-1-yl]-5-(trifluoromethyl)benzonitrile [1-67]” showed a Ki of 0.01 to 0.1 µM. With `CCOc1ncccc1-c1ccc2c(c1)N(C(=O)CCCN)CC21CCN(c2ccc(C(F)(F)F)cc2C#N)CC1` [1-11, 2-[1-(4-aminobutanoyl)-6-(2-ethoxypyridin-3-yl)-1,2-dihydrospiro[indole-3,4′-piperidin]-1′-yl]-5-(trifluoromethyl)benzonitrile] the Ki was 0.01 to 0.1 µM. Work on `CCOc1ncccc1-c1ccc2c(c1)N(C(=O)NCCN)CC21CCN(c2ccc(C(F)(F)F)cc2C#N)CC1` [1-27, N-(2-aminoethyl)-1′-[2-cyano-4-(trifluoromethyl)phenyl]-6-(2-ethoxypyridin-3-yl)-1,2-dihydrospiro[indole-3,4′-piperidine]-1-carboxamide] yielded a Ki of 0.01 to 0.1 µM.
